The target in data set [1] is T1, Histone acetyltransferase p300 (Homo sapiens, UniProt Q09472). In words: Inhibition of p300 (unknown origin) using histone H3 (1 to 21 residues) as substrate preincubated for 15 mins followed by substrate and [3H]Ac-CoA addition and measured after 60 mins by liquid scintillation counting analysis.
For data set [2], the target named is T2, CREB-binding protein (Homo sapiens, UniProt Q92793). Briefly: Inhibition of CBP (unknown origin) using histone H3 (1 to 21 residues) as substrate preincubated for 15 mins followed by substrate and [3H]Ac-CoA addition and measured after 60 mins by liquid scintillation counting analysis.
For data set [3], the system named is MV4-11. Briefly: Antiproliferative activity against human MV4-11 cells assessed as inhibition of cell growth incubated for 120 hrs by celltiter glo luminescence analysis. The format is functional, cell-based. As to conditions: MV4-11, 120 h.
A further data set deals with Protein cereblon (Homo sapiens, UniProt Q96SW2). In words: Inhibition of biotinylated thalidomide binding to CRBN (40 to 442 residues) (unknown origin) incubated for 1 hrs by HTRF assay.
Data set [4] deals with T3, Protein cereblon/Histone acetyltransferase p300 (Homo sapiens) (UniProt Q09472+Q96SW2). In words: PROTAC activity at CRBN/p300 in human MOLM16 cells assessed as induction of p300 degradation at 500 nM by Western blot analysis. The format is cell-based. As to conditions: time 0-24 hrs, TDE = time-dependent effect.
For data set [5], the target named is T4, Protein cereblon/CREB-binding protein (Homo sapiens) (UniProt Q92793+Q96SW2). Briefly: PROTAC activity at CRBN/CBP in human MOLM16 cells assessed as induction of CBP degradation incubated for 24 hrs by Western blot analysis. The format is cell-based. As to conditions: dose 0-1000 nM.
The nature of data set [6]: Toxicity in NOD-SCID mouse xenografted with human MOLM16 cells assessed as pathological changes in heart at 30 mg/kg, ip administered once daily for 2 weeks by H and E staining based analysis. The format is organism-based. As to conditions: in vivo, 336 h.
Data set [7] deals with T3, Protein cereblon/Histone acetyltransferase p300 (Homo sapiens). In words: PROTAC activity at CRBN/p300 in human MOLM16 cells assessed as reduction in p300 protein level at 500 nM pretreated with MG-132 for 2 hrs followed by compound treatment and measured after 18 hrs by Western blot analysis. The format is cell-based.
Data set [8] can be described thus: Antiproliferative activity against human MOLM16 cells assessed as inhibition of cell growth incubated for 72 hrs by celltiter glo luminescence analysis. The format is functional, cell-based, MOLM-16. As to conditions: MOLM16, 72 h.
Another data set has as its system KG-1. Briefly: Antiproliferative activity against human KG-1 cells assessed as inhibition of cell growth incubated for 72 hrs by celltiter glo luminescence analysis. The format is functional, cell-based. To be noted: KG-1, 72 h.
Data set [9] addresses T3, Protein cereblon/Histone acetyltransferase p300 (Homo sapiens). Briefly: PROTAC activity at CRBN/p300 in human MOLM16 cells assessed as induction of p300 degradation at 333 nM incubated for 24 hrs by Western blot analysis relative to control. The format is cell-based.
Data set [10] has the same target. In words: PROTAC activity at CRBN/p300 in human MOLM16 cells assessed as induction of p300 degradation incubated for 24 hrs by Western blot analysis. The format is cell-based. As to conditions: dose 0-1000 nM.
Data set [11] has as its target T4, Protein cereblon/CREB-binding protein (Homo sapiens). In words: Binding affinity to biotinylated CRBN (40 to 442 residues) (unknown origin)/His6-fused human CBP bromodomain (R1081 to G1197 residues) assessed as ternary complex formation incubated for 1.5 hrs by Alphascreen assay. The format is protein assay.
The test system of a further data set is Mus musculus. Briefly: In vivo PROTAC activity at CRBN/p300 in NOD-SCID mouse xenografted with human MOLM16 cells assessed as reduction in p300 level in tumor at 30 mg/kg, ip administered once daily for 2 weeks and measured 1 day post last dose by Western blot analysis. The format is functional, organism-based. As to conditions: time 15.0 day.
For data set [12], the target named is T4, Protein cereblon/CREB-binding protein (Homo sapiens). In words: PROTAC activity at CRBN/CBP in human MOLM16 cells assessed as reduction in CBP protein level at 500 nM measured after 18 hrs by Western blot analysis. The format is cell-based.
A short description of data set [13]: Antitumor activity against human MOLM16 cells xenografted in NOD-SCID mouse assessed as tumor growth inhibition at 30 mg/kg, ip administered once daily for 2 weeks and measured every other day by caliper method relative to control. To be noted: MOLM16, 336 h, read-out: TGI. The format is functional, MOLM-16.
A short description of data set [14]: Toxicity in NOD-SCID mouse xenografted with human MOLM16 cells assessed as pathological changes in spleen at 30 mg/kg, ip administered once daily for 2 weeks by H and E staining based analysis. The format is organism-based. To be noted: in vivo, 336 h.
In data set [15] the target is T3, Protein cereblon/Histone acetyltransferase p300 (Homo sapiens). In words: PROTAC activity at CRBN/p300 in human MOLM16 cells assessed as reduction in p300 protein level at 500 nM measured after 18 hrs by Western blot analysis. The format is cell-based.
A short description of data set [16]: Cytotoxicity against human HL7702 cells assessed as inhibition of cell growth incubated for 72 hrs by celltiter glo luminescence analysis. The format is toxicity, cell-based. To be noted: HL7702 (L02) cells.
Data set [17] can be described thus: Toxicity in NOD-SCID mouse xenografted with human MOLM16 cells assessed as pathological changes in lung at 30 mg/kg, ip administered once daily for 2 weeks by H and E staining based analysis. The format is organism-based. To be noted: in vivo, 336 h.
The target of data set [18] is T4, Protein cereblon/CREB-binding protein (Homo sapiens). Briefly: PROTAC activity at CRBN/CBP in human MOLM16 cells assessed as reduction in CBP protein level at 500 nM pretreated with pomalidomide for 2 hrs followed by compound treatment and measured after 18 hrs by Western blot analysis. The format is cell-based.
The target is the same in data set [19]. In words: PROTAC activity at CRBN/CBP in human MOLM16 cells assessed as induction of CBP degradation at 333 nM incubated for 24 hrs by Western blot analysis relative to control. The format is cell-based.
Data set [20] concerns the target T2, CREB-binding protein. Briefly: Inhibition of C-terminal biotinylated tetra-acetylated histone peptide H4 binding to His6-fused human CBP bromodomain (R1081 to G1197 residues) incubated for 1 hrs by HTRF assay.
The target of data set [21] is T4, Protein cereblon/CREB-binding protein (Homo sapiens). Briefly: PROTAC activity at CRBN/CBP in human MOLM16 cells assessed as reduction in CBP protein level at 500 nM pretreated with MG-132 for 2 hrs followed by compound treatment and measured after 18 hrs by Western blot analysis. The format is cell-based.
Data set [22] is described as follows: Toxicity in NOD-SCID mouse xenografted with human MOLM16 cells assessed as pathological changes in liver at 30 mg/kg, ip administered once daily for 2 weeks by H and E staining based analysis. The format is organism-based. As to conditions: in vivo, 336 h.
Data set [23] concerns the target T3, Protein cereblon/Histone acetyltransferase p300 (Homo sapiens). In words: Binding affinity to biotinylated CRBN (40 to 442 residues) (unknown origin)/His6-fused human p300 bromodomain (A1040 to G1161 residues) assessed as ternary complex formation incubated for 1.5 hrs by Alphascreen assay. The format is protein assay.
Data set [24] can be described thus: Toxicity in NOD-SCID mouse xenografted with human MOLM16 cells assessed as reduction in body weight at 30 mg/kg, ip administered once daily for 2 weeks. The format is organism-based. To be noted: in vivo, 336 h.
In data set [25] the target is T4, Protein cereblon/CREB-binding protein (Homo sapiens). Briefly: In vivo PROTAC activity at CRBN/CBP in NOD-SCID mouse xenografted with human MOLM16 cells assessed as reduction in CBP level in tumor at 30 mg/kg, ip administered once daily for 2 weeks and measured 1 day post last dose by Western blot analysis. As to conditions: time 15.0 day. The format is functional, organism-based.

For data set [26] the target is unchanged. Briefly: PROTAC activity at CRBN/CBP in human MOLM16 cells assessed as induction of CBP degradation at 500 nM by Western blot analysis. The format is cell-based. To be noted: time 0-24 hrs, TDE = time-dependent effect.
The subject of data set [27] is MV4-11. In words: Potency index, ratio of Y08207 IC50 to test compound IC50 for antiproliferative activity against human MV4-11 cells assessed as inhibition of cell growth incubated for 120 hrs by celltiter glo luminescence analysis. The format is functional.
The target of data set [28] is T3, Protein cereblon/Histone acetyltransferase p300 (Homo sapiens). Briefly: PROTAC activity at CRBN/p300 in human MOLM16 cells assessed as reduction in p300 protein level at 500 nM pretreated with pomalidomide for 2 hrs followed by compound treatment and measured after 18 hrs by Western blot analysis. The format is cell-based.
Data set [29] has as its target T1, Histone acetyltransferase p300. In words: Inhibition of C-terminal biotinylated tetra-acetylated histone peptide H4 binding to His6-fused human p300 bromodomain (A1040 to G1161 residues) incubated for 1 hrs by HTRF assay.
Data set [30] in a line: Toxicity in NOD-SCID mouse xenografted with human MOLM16 cells assessed as pathological changes in kidney at 30 mg/kg, ip administered once daily for 2 weeks by H and E staining based analysis. The format is organism-based. To be noted: in vivo, 336 h.

Structures are written as SMILES. The source made the active and inactive calls. The calls are words filed in the database; no cut-off is given here.

Turning to `CNC(=O)Nc1ccc2c(c1)CC[C@@]21OC(=O)N(CC(=O)N2Cc3cc(F)ccc3OC[C@H]2C2CC2)C1=O`, the values for the 50% inhibitory concentration (IC50) (in [1]; on CREB-binding protein [2]) were 0.5 nM and 11 nM, respectively.

As for `CC(=O)c1cc(C(=O)Nc2cc(CO)cc(-c3cnn(C)c3)c2F)c2cc(OCC(=O)NCCCCNc3cccc4c3C(=O)N(C3CCC(=O)NC3=O)C4=O)ccn12` (stereo not drawn), the IC50 in the data set on MV4-11 [3] was 44 nM; at Protein cereblon it was 180 nM; in data set [8] it was 7 nM; with KG-1, 570 nM; on CREB-binding protein [20] it was 21 nM; in data set [29], 30 nM. The Activity entry was “Tde” in data set [4]; “Dose-Dependent Effect” in data set [5]; “Non-Toxic” in [6]; 100% in data set [9]; “Dose-Dependent Effect” in data set [10]; “Non-Toxic” in data set [14]. In addition, the Activity entry in data set [17] was “Non-Toxic”; in data set [19], 100%; in data set [22], “Non-Toxic”; in data set [24], “Non-Toxic”; in data set [26] it was “Tde”; in data set [30] it was “Non-Toxic”. Moreover, the result in data set [7], in data set [18], in data set [21] and in data set [28] was inactive. Further, the result (in data set [11]; with Mus musculus; in data set [12]; in [15]; in [23]; in data set [25]) was Active. For the same compound, the inhibition in vivo at 30 mg/kg in [13] is 60%. Besides, the IC50 at 72 h in data set [16] is > 100 µM. For the same compound, the “Ratio IC50” value with MV4-11 [27] amounted to 140.

(Values after ChEMBL document CHEMBL5512685, “Discovery of a Promising CBP/p300 Degrader XYD129 for the Treatment of Acute Myeloid Leukemia” (J Med Chem, 2024).)
